# From US11278629B2, “Methods for improving anti-CD37 immunoconjugate therapy” (Debiopharm International, S.A., priority 2016, dated 2022)
# Experiments:
# [1] = tested on: lymphoma cell lines; assay: Cell proliferation, MTT assay, fifty-four lymphoma cell lines; format: cell-based; conditions: 72 hours exposure, read-out: median IC50
# Text: (§1) Fifty-four lymphoma cell lines (ALCL, anaplastic large cell lines (n=5); CLL, chronic lymphocytic leukemia (n=2); ABC-DLBCL, activated B cell like diffuse large B cell (n=7); GCB-DLBCL, germinal center B cell like diffuse large B cell (n=20); MCL, mantle cell lymphoma (n=10); MZL, marginal zone lymphoma (n=6); PMBCL, Primary Mediastinal Large B-Cell Lymphoma (n=1); SMZL, splenic marginal zone lymphoma (n=3)) were exposed to increasing doses of IMGN529 or to the unconjugated cytotoxic payload DM1 for 72 hours. Cell proliferation was measured using the MTT assay. Apoptosis induction was defined by at least a 1.5-fold increase in caspase 3/7 signal activation with respect to controls using the Promega ApoTox-Glo Triplex Assay. CD37 surface expression was assessed by cytofluorimetry. Gene expression profiling (GEP) was done with the Illumina HumanHT-12 Expression BeadChips on untreated cell lines followed by GSEA (NES>|2|, P<0.05, FDR<0.25) and limma t-test (FC>|1.2|; P<0.05; top 200 up and top 200 down).
# [2] = tested on: lymphoma cell lines; assay: Apoptosis induction, caspase 3/7 activation (Promega ApoTox-Glo Triplex Assay); format: cell-based; conditions: 33/54 cell lines; apoptosis = at least 1.5-fold increase in caspase 3/7 signal vs controls
# Text: as §1
Compound,IC50 [1] [nM],lymphoma cell lines in which apoptosis was induced [2] [%]
"COc1cc2cc(c1Cl)N(C)C(=O)C[C@H](OC(=O)[C@H](C)N(C)C(=O)CCS)[C@]1(C)O[C@H]1[C@H](C)C1C[C@@](O)(NC(=O)O1)[C@H](OC)/C=C/C=C(\C)C2 [DM1, N^2′-deacetyl-N^2′-(3-mercapto-1-oxopropyl)-maytansine]",0.03,–
"IMGN529: immunoconjugate containing the huCD37-3 antibody, the SMCC linker, and the DM1 maytansinoid",–,61
